{"source": "patent US20160053316A1", "about": "“Systems and Methods for Determining a C-Peptide Receptor, C-Peptide Receptor, and Methods of Using Same” (Saint Louis University, priority 2012, published 2016)", "key": {"HEK293 cells": {"test_system": "HEK293 cells", "experiment": "C-peptide-induced cFos mRNA expression (RT-PCR) in HEK293 cells", "type": "cell-based, human", "conditions": "treatment with C-peptide (FIG. 3)", "protocol": "(§1) In utilizing the methodology to determine a C-peptide receptor, three human cell lines were determined (101) to respond to treatment with C-peptide with an up regulation of cFos message as determined by RT-PCR. These three were KATOIII (Human Stomach Carcinoma), HEK 293 (human embryonic kidney cells) and TF-1 (an erythroleukemia cell line). The results of tests to show responsiveness are provided graphically in FIGS. 2, 3, and 4. When these three cell lines were screened for the expression of known orphan GPCRs (103), 24 of the approximately 125 orphan GPCRs were expressed by all three cell types as indicated by the table of FIG. 5. Using bioinformatics, the pool of FIG. 5 can be narrowed (105) by eliminating any candidates already matched to other ligands or that had significant homology to GPCRs that bind to non-peptide targets (15 in this case). This is also shown in FIG. 5 with the items that are eliminated darkened. One GPCR (GPR107) could be eliminated as it was recently determined that this was the cognate receptor for neurostatin. This also allowed it to be used as a convenient control as evidenced later herein."}, "GPR146": {"biological_target": "T1, GPR146 (Homo sapiens, UniProt Q96CH1)", "T1 construct": "endogenous in cells; host or cells: KATOIII (human stomach carcinoma)", "T1 sequence (Q96CH1 whole entry)": "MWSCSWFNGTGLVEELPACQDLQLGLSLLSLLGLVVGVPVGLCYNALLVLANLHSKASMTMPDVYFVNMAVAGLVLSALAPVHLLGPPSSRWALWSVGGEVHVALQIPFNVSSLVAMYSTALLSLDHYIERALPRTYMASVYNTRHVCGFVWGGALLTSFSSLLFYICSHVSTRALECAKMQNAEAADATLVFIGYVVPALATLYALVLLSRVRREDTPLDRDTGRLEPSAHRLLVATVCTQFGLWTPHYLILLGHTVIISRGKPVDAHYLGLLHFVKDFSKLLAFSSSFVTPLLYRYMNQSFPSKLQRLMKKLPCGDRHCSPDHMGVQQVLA", "experiment": "cFos response to C-peptide in siRNA-transfected KATOIII cells", "type": "cell-based", "conditions": "1 nmole C-peptide", "protocol": "Once the hierarchical candidates were identified and ranked, KATOIII cells were then transfected with siRNA (Integrated DNA technologies) (111) directed against either GPR107 (control), GPR146 (most likely candidate not yet tested) or eGFP (green fluorescent protein-control) using […] (Invitrogen). Five hours later, the media was changed to serum free control media (ATCC) and the serum was starved overnight. Twenty-four (24) hours after transfection with siRNA, cells were treated with 1 nmole C-peptide (Phoenix Pharmaceuticals) for 1 hour, then lysed and RNA were isolated using an RNeasy Kit (Qiagen). RNA was used as a template from the production of cDNA, and changes in cFos expression were determined using RT-PCR (BioRad 2x iQ SyberGreen Master Mix, using a BioRad CFX real time system). […] As this produced the desired negative response (113), GPR146 was the target GPCR (115). The receptiveness of GPR146 to C-peptide has since been verified by additional conventional tests."}, "TF-1 cells": {"test_system": "TF-1 cells", "experiment": "C-peptide-induced cFos mRNA expression (RT-PCR) in TF-1 cells", "type": "cell-based, human", "conditions": "treatment with C-peptide (FIG. 4)", "protocol": "as §1"}, "KATOIII cells": {"test_system": "KATOIII cells", "experiment": "C-peptide-induced cFos mRNA expression (RT-PCR) in KATOIII cells", "type": "cell-based, human", "protocol": "as §1, with “This is also shown in FIG. 5 with the items that are eliminated darkened.” left out, “This also allowed it to be used as a convenient control as evidenced later herein.” left out\nTo evaluate whether anti-GPR146ex-induced enhancement of receptor capping and co-localization corresponded with an increase in C-peptide-induced cFos expression, KATOIII cells were treated with either vehicle (control media), 1 nM C-peptide, anti-GPR146ex (1:500), or anti-GPR146ex and 1 nM C-peptide for one hour at 37 degrees Celsius. […] Changes in cFos mRNA expression were evaluated using real time PCR (RT-PCR)."}}}
{"substance": "C-peptide", "values": [{"measurement": "cFos mRNA expression", "setting": "HEK293 cells", "value": "increase in cFos mRNA expression"}, {"measurement": "cFos expression", "setting": "GPR146; KATOIII cells transfected with Vehicle, GPR107 siRNA or eGFP siRNA (controls), 1 hour", "value": "increase in cFos"}, {"measurement": "cFos expression", "setting": "GPR146; KATOIII cells with GPR146 compromised by siRNA, 1 hour (FIG. 6)", "value": "failed to respond"}, {"measurement": "cFos mRNA expression", "setting": "TF-1 cells", "value": "increase in cFos mRNA expression"}, {"measurement": "cFos mRNA expression, material alone", "setting": "KATOIII cells; one hour at 37 degrees Celsius, 1 nM C-peptide or anti-GPR146ex 1:500 alone (FIG. 7)", "value": "increased cFos"}, {"measurement": "cFos mRNA expression", "setting": "KATOIII cells; treatment with C-peptide (FIG. 2)", "value": "increase in cFos mRNA expression"}]}
